Experiments:
[1] = tested on: subintestinal vein vessels (SIVs) of Tg(fli1:EGFP) zebrafish embryos; assay: Blood vessel formation (SIV diameter/morphology) in Tg(fli1:EGFP) zebrafish embryos; type: in vivo; details: for angiogenic effect in SIVs, comparison with classical SERMs: raloxifene 10 µM, tamoxifen 3 µM, 17-βEstradiol 10 µM, calycosin 100 µM
Description: Zebrafish embryos were generated by natural pair-wise mating (3–12 months old) and were raised at 28.5°C in embyro water. Healthy, hatched zebrafish were picked out at 3 dpf and distributed into a 12-well microplate with 10 to 15 fish in each well. […] Embryos receiving DMSO (0.1%) served as vehicle controls and were equivalent to no treatment. Each experiment was repeated at least three times, with 30 embryos per group. VTKI was dissolved in DMSO as stock. Zebrafish embryos, Tg(fli-1:EGFP) and Tg(fli-1:nEGFP), were treated with inhibitor dissolved in embryo water from 3 dpf at the concentration indicated, controlled by DMSO treated embryos. Embryos were maintained using standard methods.
(§1) At 96 hpf, zebrafish were removed from microplates and observed for viability and gross morphological changes under a fluorescence microscope (Olympus IX81 Motorized Inverted Microscope, Japan) equipped with a digital camera (DP controller, Soft Imaging System, Olympus). Images were analyzed with Axiovision 4.2 and Adobe Photoshop 7.0.
Three random points in SIVs of Tg(fli1:EGFP) zebrafish embryos were chosen for vessel diameter measurement using AxiovisionLE 4.1. Numbers of endothelial cells in SIVs of Tg(fli1:nEGFP) zebrafish embryos were assessed by direct counting of the total number of green light points. Each green light point represents one endothelial cell (GFP+).

zebrafish embryos = assay: Toxicity (highest non-toxic dose) in zebrafish embryos; type: in vivo; details: 72 hpf for 24 h
Description: (§2) Zebrafish embryos were generated by natural pair-wise mating (3–12 months old) and were raised at 28.5°C in embyro water. Healthy, hatched zebrafish were picked out at 3 dpf and distributed into a 12-well microplate with 10 to 15 fish in each well. Different concentrations (10, 30, 100 µM) of calycosin, raloxifene or tamoxifen solutions were then added to wells and incubated at 28°C for 24 h. Embryos receiving DMSO (0.1%) served as vehicle controls and were equivalent to no treatment. Each experiment was repeated at least three times, with 30 embryos per group. VTKI was dissolved in DMSO as stock. Zebrafish embryos, Tg(fli-1:EGFP) and Tg(fli-1:nEGFP), were treated with inhibitor dissolved in embryo water from 3 dpf at the concentration indicated, controlled by DMSO treated embryos. Embryos were maintained using standard methods.
as §1

ERK1/2 = assay: Western blotting of phospho-ERK1/2 in HUVEC; type: cell-based, Human
HUVEC = HUVEC viability/proliferation by XTT assay; type: cell-based, Human; details: P<0.05
ERβ [2] = biological target: T1, ERβ (Homo sapiens, UniProt Q92731); details: percentage of maximum activation induced by 17-β-estradiol (10 µM)
Target sequence in this assay (Q92731 264-498 limits assumed): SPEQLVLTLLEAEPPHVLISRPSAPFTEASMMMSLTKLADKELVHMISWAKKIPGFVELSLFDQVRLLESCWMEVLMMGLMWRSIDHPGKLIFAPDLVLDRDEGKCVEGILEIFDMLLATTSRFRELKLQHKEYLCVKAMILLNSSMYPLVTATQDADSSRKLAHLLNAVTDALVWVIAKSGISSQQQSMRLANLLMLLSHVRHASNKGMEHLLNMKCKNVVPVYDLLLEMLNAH

ERβ [3] = biological target: T1, ERβ; assay: biochemical
Description: (§3) The binding affinity of calycosin to ER-α and β was evaluated by the commercially available competitor assay (Invitrogen, Carlasbad, CA) according to the manufacturer's instructions. In brief, ER was added to fluorescently tagged ER ligand (Fluormone™ ES2) to form ER/Fluormone™ ES2 complexes with a high fluorescent polarization value. Displacement of fluorescently tagged ligands by unlabeled ligands decreased fluorescent polarization, resulting in a low value. In this system, changes in intensity of polarization reflect displacement of fluorescently tagged ligands. […] Plates were incubated at room temperature for 2 h and fluorescent polarization values measured using a Multilabel Counter (Perkin Elmer, Singapore).
Target sequence in this assay (Q92731 whole entry): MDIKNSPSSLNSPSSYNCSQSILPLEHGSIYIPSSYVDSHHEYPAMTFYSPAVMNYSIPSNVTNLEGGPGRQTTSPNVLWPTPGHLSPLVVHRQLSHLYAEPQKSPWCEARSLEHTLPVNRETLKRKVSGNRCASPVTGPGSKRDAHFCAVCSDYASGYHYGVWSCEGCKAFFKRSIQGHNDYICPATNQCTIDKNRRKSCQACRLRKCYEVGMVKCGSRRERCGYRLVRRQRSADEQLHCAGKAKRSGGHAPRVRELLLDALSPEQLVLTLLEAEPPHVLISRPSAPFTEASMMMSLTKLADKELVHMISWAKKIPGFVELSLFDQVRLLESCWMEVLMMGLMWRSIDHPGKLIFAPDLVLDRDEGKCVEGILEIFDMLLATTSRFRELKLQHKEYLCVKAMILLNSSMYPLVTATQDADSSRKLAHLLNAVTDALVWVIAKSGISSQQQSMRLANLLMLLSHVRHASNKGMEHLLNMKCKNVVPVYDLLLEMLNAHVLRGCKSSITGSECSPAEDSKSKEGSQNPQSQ

ERα [4] = biological target: T2, ERα (Homo sapiens, UniProt P03372); assay: ER fluorescence polarization competitive binding assay (Fluormone ES2 displacement), ERα
T2 construct: purchased Invitrogen
T2 sequence (P03372 1-595): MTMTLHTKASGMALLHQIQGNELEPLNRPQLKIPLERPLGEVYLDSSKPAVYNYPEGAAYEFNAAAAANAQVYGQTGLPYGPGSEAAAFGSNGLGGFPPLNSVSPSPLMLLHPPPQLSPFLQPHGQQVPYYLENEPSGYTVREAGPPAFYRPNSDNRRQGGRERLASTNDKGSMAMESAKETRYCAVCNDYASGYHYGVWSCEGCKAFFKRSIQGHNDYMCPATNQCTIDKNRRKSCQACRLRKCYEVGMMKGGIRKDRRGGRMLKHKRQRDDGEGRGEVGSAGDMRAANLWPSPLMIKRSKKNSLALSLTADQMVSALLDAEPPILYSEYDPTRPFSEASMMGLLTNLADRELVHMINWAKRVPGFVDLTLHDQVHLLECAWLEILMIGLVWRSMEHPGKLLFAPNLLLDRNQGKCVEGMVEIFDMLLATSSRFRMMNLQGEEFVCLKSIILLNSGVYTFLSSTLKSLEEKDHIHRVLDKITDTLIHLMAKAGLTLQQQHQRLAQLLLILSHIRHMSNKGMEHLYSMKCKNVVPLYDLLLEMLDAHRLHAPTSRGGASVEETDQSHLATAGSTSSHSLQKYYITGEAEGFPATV
Description: as §3

ERα [5] = biological target: T3, ERα (Homo sapiens, UniProt P03372); assay: GeneBLAzer β-lactamase reporter-gene assay, antagonist activity against E2, ERα-UAS-bla GripTite cells; details: in presence of EC80 of 17-β-estradiol
T3 sequence (P03372 311-547 limits assumed): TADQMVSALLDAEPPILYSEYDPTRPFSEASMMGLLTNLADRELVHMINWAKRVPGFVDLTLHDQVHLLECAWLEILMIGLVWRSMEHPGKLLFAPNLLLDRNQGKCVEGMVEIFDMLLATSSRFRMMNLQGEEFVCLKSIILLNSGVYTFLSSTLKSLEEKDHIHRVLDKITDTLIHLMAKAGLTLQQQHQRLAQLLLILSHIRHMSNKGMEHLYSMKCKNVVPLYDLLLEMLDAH

[6] = tested on: endothelial cells in SIVs of Tg(fli1:nEGFP) zebrafish embryos; assay: Endothelial cell number in SIVs of Tg(fli1:nEGFP) zebrafish embryos; type: in vivo; details: calycosin 10, 30, 100 µM, 72 hpf for 24 h; SIV region
Description: as §2, with “Embryos were maintained using standard methods.” left out
as §1
Three random points in SIVs of Tg(fli1:EGFP) zebrafish embryos were chosen for vessel diameter measurement using AxiovisionLE 4.1. Numbers of endothelial cells in SIVs of Tg(fli1:nEGFP) zebrafish embryos were assessed by direct counting of the total number of green light points. […]

ERα [7] = biological target: T3, ERα; assay: GeneBLAzer β-lactamase reporter-gene assay, agonist activity, ERα-UAS-bla GripTite cells
ERβ [8] = biological target: T1, ERβ
Target sequence in this assay (Q92731 264-498 limits assumed): as the sequence (Q92731 264-498 limits assumed) above

[9] = tested on: VEGFA, VEGFR1, Flk1A, Flk1B mRNA; assay: mRNA expression in calycosin treated zebrafish by real-time PCR; type: in vivo; details: 100 µM, 6 h
Description: Zebrafish embryos at 72 hpf were treated with calycosin for 6 h. Total RNA was extracted from 30 zebrafish embryos of each treatment group using the RNeasy Mini Kit (Qiagen, USA) in accordance with the manufacturer's instructions. RNA was reverse transcribed to single-strand cDNA using SuperScript™ III First-Strand Synthesis System for RT–PCR (Invitrogen™, USA), followed by real-time PCR using the TaqMan® Universal PCR Master Mix and 250 nM custom TaqMan primers for zebrafish Flk1A, Flk1B, VEGFR1, VEGFA2 (Applied Biosystems, USA) in the ABI 7500 Real-Time PCR System (Applied Biosystems). The expression of Flk1A, VEGFA2 mRNA was normalized to the amount of bactin1, using the relative quantification method described by the manufacturer.
The zebrafish bactin1 primers were 5′-[…]-3′ (F) and 5′-[…]-3′(R) (Applied Biosystems, USA).
The zebrafish Flk1A (kdrl) primers were 5′- […]-3′ (F) and 5′- […]-3′(R) (Applied Biosystems, USA).
The zebrafish Flk1B (kdr) primers were 5′- […]-3′ (F) and 5′-[…]-3′(R) (Applied Biosystems, USA).
The zebrafish FLT1 primers were 5′-[…]-3′ (F) and 5′-[…]-3′(R) (Applied Biosystems, USA).
The zebrafish VEGFA2 primers were 5′-[…]-3′ (F) and 5′-[…]-3′ (R) (Applied Biosystems, USA).

C[C@]12CC[C@@H]3c4ccc(O)cc4CC[C@H]3[C@@H]1CC[C@@H]2O [E2, 17-β-estradiol]
angiogenic effect in SIVs, comparison with classical SERMs ([1]; 72 hpf for 24 h): no obvious changes | highest non-toxic dose in zebrafish embryos (zebrafish embryos): 10 µM

C[C@]12CC[C@@H]3c4ccc(O)cc4C[C@@H](CCCCCCCCC[S+]([O-])CCCC(F)(F)C(F)(F)F)[C@H]3[C@@H]1CC[C@@H]2O (stereo partly drawn) [ICI182, 780, reference compound]
effect on calycosin-induced phosphorylation of ERK1/2 (ERK1/2; ICI182, 780 30 µM, calycosin 100 µM): suppressed phosphorylation of ERK1/2 to control levels | reduction of calycosin-induced HUVEC proliferation (HUVEC; pre-treatment with ER inhibitor 30 µM before calycosin 100 µM): 40%

COc1ccc(-c2coc3cc(O)ccc3c2=O)cc1O [calycosin]
maximum agonistic activity at ERβ (ERβ [2]): 8.6% | IC50 (ERβ [3]): 32.4 µM | IC50 value relative to that of E2 (higher) (ERα [4]; binding to ERα and ERβ): approximately 10^4 fold | IC50 (ERα [4]; displacement of Fluormone ES2, 2 h room temperature): 58.1 µM | maximum inhibition against E2 at ERα (ERα [5]): 46% | increase in endothelial cells population compared with the control [6]: approximately 1.5 times | diameter of SIVs ([1]; calycosin 10, 30, 100 µM, 72 hpf to 96 hpf, vs 0.1% DMSO control, P<0.05 and P<0.001): increased in a dose-dependent manner | angiogenic effect in SIVs, comparison with classical SERMs ([1]; 72 hpf for 24 h): significant angiogenic effect | time at which phosphorylation of ERK1/2 reached a plateau (ERK1/2; calycosin 100 µM): 30 to 60 min | phosphorylation of ERK1/2, concentration dependence (ERK1/2; calycosin 10, 30, 100 µM for 30 min, maximum at 100 µM): enhanced in a dose-dependent manner | EC50 (ERα [7]): 2.47 µM | increase in maximal activation at ERα compared with ERβ (ERα [7]; agonist activity assay): 2 fold | reduction in EC50 value at ERα compared with ERβ (ERα selectivity) (ERα [7]; agonist activity assay): 2 fold | maximum agonistic activity at ERα (ERα [7]; percentage of maximum activation induced by 17-β-estradiol (10 µM)): 14.6% | promotion of HUVEC proliferation (HUVEC; calycosin 100 µM, Fig. 9A experiment): 67% | reduction in IC50 value at ERβ compared with ERα (ERβ [8]): 2 fold | increase in maximal inhibition at ERβ compared with ERα (ERβ [8]; antagonist activity assay): 2 fold | maximum inhibition against E2 at ERβ (ERβ [8]; in presence of EC80 of 17-β-estradiol): 82% | VEGFA mRNA expression level compared to the control ([9]; embryos at 72 hpf, increase trend): 1.2 fold | Flk1A mRNA expression increase ([9]; P<0.001): 0.8 fold | Flk1B mRNA expression increase ([9]; P<0.001): 0.9 fold | VEGFR1 mRNA expression increase ([9]; P<0.001): 1.1 fold

O=C(c1ccc(OCCN2CCCCC2)cc1)c1c(-c2ccc(O)cc2)sc2cc(O)ccc12 [raloxifene]
angiogenic effect in SIVs, comparison with classical SERMs ([1]; 72 hpf for 24 h): no obvious changes | highest non-toxic dose in zebrafish embryos (zebrafish embryos): 10 µM

CC/C(=C(\c1ccccc1)c1ccc(OCCN(C)C)cc1)c1ccccc1 [tamoxifen]
angiogenic effect in SIVs, comparison with classical SERMs ([1]; 72 hpf for 24 h): no obvious changes | highest non-toxic dose in zebrafish embryos (zebrafish embryos): 3 µM

O=C(Nc1ccc(Cl)cc1)c1ccccc1NCc1ccncc1 [VRI]
effect on calycosin-induced angiogenesis (SIV diameter and endothelial cell number) ([1]; VRI 100 ng/ml with calycosin 100 µM, 72 hpf for 24 h): sufficient to reverse the calycosin-induced angiogenic effects to control levels | effect on angiogenesis in zebrafish embryonic development, inhibitor alone, low concentration ([1]; VRI 100 ng/ml, 72 hpf for 24 h): no effect | effect on angiogenesis in zebrafish embryonic development, inhibitor alone, high concentration ([1]; VRI 1 µg/ml, 72 hpf for 24 h): caused significant (P<0.001) defects in angiogenesis

Source: publication PMC2912279, “Calycosin Promotes Angiogenesis Involving Estrogen Receptor and Mitogen-Activated Protein Kinase (MAPK) Signaling Pathway in Zebrafish and HUVEC” (PLoS ONE, 2010)
